In US11331328B2, “Compositions and methods for inhibiting antiapoptotic Bcl-2 proteins as anti-aging agents” (priority 2014, dated 2022):

Experiments:
[1] = test system: mouse embryonic fibroblasts (MEF); experiment: Cell viability, IR-SC vs NC, mouse embryonic fibroblasts; type: cell-based; settings: increasing concentrations, 72 h
Method: (§1) Human WI-38 fibroblasts (WI38 cells, #CCL-75™), human IMR-90 fibroblasts (IMR90 cells, #CCL-186™), human renal epithelial cells (REC cells, #PCS-400-012™) were obtained from ACTT (Manassas, Va., USA). Mouse embryonic fibroblasts (MEF) were isolated from mouse embryos as described^1. All cells were cultured in a complete medium (CM) (Dulbecco's Modified Eagle Medium supplemented with 10% fetal bovine serum [FBS], 100 U/ml penicillin, and 100 μg/ml streptomycin [all from Atlanta Biologicals, Norcross, Ga., and USA]) in a humidified incubator at 37° C. and 5% CO2. Low passages of WI-38 cells (<25), IMR-90 (<25), REC cells (<25) and MEF (<3) were used as non-senescent controls or for induction of senescence to avoid replicative senescence. To induce replicative senescence, WI-38 cells were subcultivated until cell division ceased after about 38 passages or 60 population doublings (FIG. 5)^2. […]
(§2) Flow cytometry: Non-senescent and senescent cells were seeded into wells of 24- or 48-well at about 70% of confluence. […] Viable cells (PI^− cells) were numerated by flow cytometry at a constant flow rate and calculated as a percentage of control cells treated with vehicle using the formula: percentage of control=(Ndrug/NC)×100, where Ndrug and NC represent the absolute number of PI^− viable cells of drug-treated and vehicle-treated cells, respectively.

[2] = test system: IL-1α, TNFα, CCL-5, CXCL-10 mRNA; experiment: SASP mRNA levels in lungs of TBI p16-3MR mice (qRT-PCR); type: in vivo, mouse; settings: 6 Gy TBI; 2 treatment cycles
Method: To measure p21 and GAPDH mRNA levels in WI-38 cells and IL-1α, TNFα, CCL-5, and CXCL-10 mRNA levels in mouse tissues, SYBR assay kit was used (Applied biosystems in life technologies). Briefly, 1 μl cDNA was mixed with 7.5 μl SYBR Green PCR Master Mix and 0.2 μl of primers (Table 5). Samples were then added with 6.30 μl of H2O to give a total 15 μl of mixture. qPCR conditions were as follows: 95° C. for 10 min, 40×(95° C. for 15 s and 60° C. for 1 min), 95° C. for […], 95° C. for 15 min. All reactions were run in triplicate on an ABI StepOnePlus Real-Time PCR System.

[3] = test system: human IMR-90 fibroblasts; experiment: Cell viability, IR-SC vs NC, IMR-90 fibroblasts; type: cell-based; settings: increasing concentrations, 72 h
Method: as §1, §2

[4] = test system: bone marrow HSCs; experiment: Single HSC culture clonogenic activity in vitro; type: cell-based, mouse; settings: 1.25 μM ABT263
Method: Freshly prepared medium was added every 3 days, Two weeks later, the numbers of cells produced by each HSC were counted.

[5] = test system: senescent HSCs induced by TBI
Method: The femora and tibiae were harvested from mice immediately after they were euthanized. BM cells were flushed from the bones into HBSS containing 2% FCS using a 21-gauge needle and syringe. […] The labeled mature lymphoid and myeloid cells were depleted twice by incubation with goat anti-rat IgG paramagnetic beads (Dynal Inc, Lake Success, N.Y., USA) at a bead:cell ratio of approximately 4:1. Cells binding the paramagnetic beads were removed with a magnetic field. The negatively isolated Lin^− cells were washed twice with 2% FCS/HBSS and resuspended in complete medium (RPMI1640 medium supplemented with 10% FCS, 2 mM L-glutamine, 10 μM HEPES buffer, and 100 U/ml penicillin and streptomycin) at 1×10^6/ml. HSCs (CD150^+CD48^− LSK^+ cells) were sorted by a BD FACSAria II cell sorter (BD Biosciences, San Jose, Calif.) after Lin^− cells were preincubated with anti-CD16/32 antibody to block the Fcγ receptors and then stained with anti-Sca1-PE, c-Kit-APC-Cy7, CD150-APC and CD48-Pacific blue antibodies. Dead cells were excluded by gating out the cells that stained positive with PI.
Feeder cell stromal layers were prepared by seeding 10^3/well FBMD-1 stromal cells in each well of flat-bottom 96-well plates (Falcon, Lincoln Park, N.J.). One week later, BM-MNCs resuspended in CAFC medium (Iscove's MDM supplemented with 20% horse serum, 10^−5 M hydrocortisone, 10^−5 M 2-mercaptoethanol, 100 U/ml penicillin, and 100 μg/ml streptomycin) after various treatments described above were overlaid on these stromal layers in 6 dilutions at 3-fold intervals. Twenty wells were plated for each dilution to allow limiting dilution analysis of the precursor cells forming hematopoietic cell clones under the stromal layer. Cultures were fed weekly by changing one-half of the media. The frequencies of CAFC were determined on days 14 and 35. Wells were scored positive if at least one phase-dark hematopoietic clone (containing 5 or more cells) was seen. The frequency of CAFC was then calculated by using Poisson statistics as described previously^9, 10. […]

[6] = test system: caspase 3, caspase 8; experiment: Western blot analysis of caspase activation; type: cell-based, human; settings: IR-SC WI-38; 1.25 μM ABT263, 24 h
Method: Cells (1×10^6) were lysed in 100 μl lysis buffer (20 mM Tris-HCl, pH 7.4, 150 mM NaCl, 1 mM EDTA. 1 mM EGTA, 10% glycerol, 1.0% NP-40, 0.1 M NaF, 1 mM DTT, 1 mM PMSF, 1 mM NaVO4, 2 μg/ml leupeptin and aprotinin) for 30 min on ice, and cell extracts were sonicated 3 times (5 secs each time) on ice with a 25-sec interval in between using a Sonic Dismembrator Ultrasonic Convertor (Model F60, from Fisher, Pittsburgh, Pa., USA). The protein concentrations were quantified using the Bio-Rad Dc protein assay kit (Bio-Rad Laboratories, Hercules, Calif., USA). Equal amounts of protein (25-50 μg/lane) from each extract was resolved on 12% SDS-PAGE gels. Proteins were blotted to NOVEX NC membranes (Life Technologies, Carlsbad, Calif., USA). The membranes were blocked with TBS-T (5% nonfat milk in 25 mM Tris-HCl, pH 7.4. 3 mM KCl, 140 mM NaCl, and 0.05% Tween) and subsequently probed with primary antibodies at a predetermined optimal concentration as indicated in Supplementary Table 3 overnight at 4° C. or for 1 h at room temperature. […] After three washes with TBS-T, the blots were detected using the ECL Western Blotting Detection Reagents (Cat #WBKLS0100) (EMD MILLIPORE. Newmarket, Suffolk, UK) and recorded by exposure of the blots to X-ray film (Pierce Biotech, Rockford, Ill., USA).

[7] = test system: senescent WI38 cells induced by replicative exhaustion (Rep-SC); experiment: Cell viability, LD50 in replicative senescent WI-38 cells; type: cell-based, human; settings: Table 2
Method: as §1
as §2, with “respectively. […]” for “respectively.”

CC1(C)CCC(c2ccc(Cl)cc2)=C(CN2CCN(c3ccc(C(=O)NS(=O)(=O)c4ccc(N[C@H](CCN5CCOCC5)CSc5ccccc5)c(S(=O)(=O)C(F)(F)F)c4)cc3)CC2)C1 [ABT263, navitoclax]
viable cells, IR-SC vs NC [1]: kills IR-induced senescent cells (IR-SC) but not non-senescent cells (NC) | SASP in lungs [2]: suppressed the SASP induced by TBI | viable cells, IR-SC vs NC [3]: kills IR-induced senescent cells (IR-SC) but not non-senescent cells (NC) | clonogenicity of BM HSCs in vitro ([4]; HSCs from control unirradiated mice): had little effect on the clonogenicity of BM HSCs from control unirradiated mice | clonogenicity of BM HSCs in vitro ([4]; HSCs from irradiated mice): markedly reduced the clonogenicity of BM HSCs from irradiated mice | HSC myeloid skewing, quiescence and persistent DNA damage ([5]; TBI mice, Ki67, γH2AX, BMT): attenuated IR-induced HSC myeloid skewing and disruption of HSC quiescence, and reduced HSCs with persistent DNA damage | BM HSC and HPC numbers ([5]; after ABT263 treatment of CTL or TBI mice): did not quantitatively reduce BM HSCs or hematopoietic progenitor cells (HPCs) | clonogenicity (CAFC) and long-term engraftment ability of HSCs ([5]; day-35 CAFC, competitive and serial BMT): significantly improved the clonogenicity and long-term engraftment ability of HSCs | caspase activation [6]: SCs activated caspase 3, but not caspase 8 | LD50 [7]: 1.45 µM
